Assay results taken from the NIST ThermoML archive (doi:10.1021/acs.jced.7b00452).
Numbers after ± are expanded uncertainties.

Assay: mn = molality of the nth substance listed, in mol/kg
Details: 101.3 kPa, Liquid; for speed of sound: Single path-length method; for mass density: Vibrating tube method

CCN(CC)CCNC(=O)c1ccc(N)cc1.Cl [procainamide hydrochloride] + O
Details | mass density, 298.15 K [kg/m3] | mass density, 308.15 K [kg/m3] | mass density, 318.15 K [kg/m3] | speed of sound, 298.15 K [m/s] | speed of sound, 308.15 K [m/s] | speed of sound, 318.15 K [m/s]
m1 = 0.0292 | 998.359 ± 0.1 | 995.314 ± 0.11 | 991.46 ± 0.11 | 1501.6 ± 1 | 1524.2 ± 1 | 1538.9 ± 1
m1 = 0.0328 | 998.521 ± 0.1 | 995.471 ± 0.11 | 991.615 ± 0.11 | 1502.1 ± 1 | 1524.6 ± 1 | 1539.2 ± 1
m1 = 0.043 | 998.975 ± 0.1 | 995.914 ± 0.1 | 992.05 ± 0.11 | 1503.6 ± 1 | 1525.8 ± 1 | 1540.3 ± 1
m1 = 0.0551 | 999.51 ± 0.1 | 996.435 ± 0.1 | 992.563 ± 0.11 | 1505.4 ± 1 | 1527.1 ± 1 | 1541.3 ± 1
m1 = 0.0689 | 1000.14 ± 0.1 | 997.048 ± 0.1 | 993.168 ± 0.11 | 1507.5 ± 1 | 1528.6 ± 1 | 1542.7 ± 1
m1 = 0.076 | 1000.45 ± 0.1 | 997.346 ± 0.1 | 993.461 ± 0.11 | 1508.5 ± 1 | 1529.5 ± 1 | 1543.3 ± 1
m1 = 0.0804 | 1000.66 ± 0.1 | 997.55 ± 0.1 | 993.641 ± 0.11 | 1509.1 ± 1 | 1530 ± 1 | 1543.7 ± 1
m1 = 0.0938 | 1001.27 ± 0.1 | 998.14 ± 0.1 | 994.212 ± 0.11 | 1511.1 ± 1 | 1531.7 ± 1 | 1544.9 ± 1
m1 = 0.1119 | 1002.05 ± 0.1 | 998.919 ± 0.1 | 994.982 ± 0.11 | 1513.8 ± 1 | 1533.8 ± 1 | 1546.4 ± 1
m1 = 0.1194 | 1002.38 ± 0.1 | 999.225 ± 0.1 | 995.305 ± 0.11 | 1514.9 ± 1 | 1534.8 ± 1 | 1547.1 ± 1
m1 = 0.1306 | 1002.87 ± 0.1 | 999.706 ± 0.1 | 995.779 ± 0.11 | 1516.6 ± 1 | 1536.1 ± 1 | 1548 ± 1
m1 = 0.1402 | 1003.3 ± 0.11 | 1000.12 ± 0.1 | 996.189 ± 0.11 | 1517.9 ± 1 | 1537.3 ± 1 | 1548.9 ± 1
m1 = 0.1601 | 1004.18 ± 0.11 | 1000.98 ± 0.1 | 997.035 ± 0.11 | 1520.9 ± 1 | 1539.7 ± 1 | 1550.6 ± 1
m1 = 0.1715 | 1004.66 ± 0.11 | 1001.46 ± 0.1 | 997.488 ± 0.1 | 1522.6 ± 1 | 1541.1 ± 1 | 1551.6 ± 1
